Tests used:
CDK5 = test system: CDK5; parameters: method as in PMID 19075597; settings: application of carboplatin; cited from earlier work
p35/CDK5 [1] = target: T1, p35/CDK5 (Homo sapiens, UniProt Q00535+Q15078); assay type: biochemical; settings: inhibitor 10 μM, 30 min pre-incubation, GST-tau 0.5 μM, 2 mUnits kinase, Fig. 2b
T1 construct: purchased Millipore UK Ltd, Herts, UK
Protocol: (§1) Recombinant protein substrates were incubated with 2mUnits of each CMGC kinase as for MBP above for the times and at the concentrations given in figure legends. Reactions were terminated by the addition of SDS-PAGE loading buffer and heating to 70 °C for 15 mins. Aliquots were subjected to SDS-PAGE, stained with Coomassie Brilliant Blue (CBR-250), the gels were dried and radiolabeled bands visualized by autoradiography. Quantification of nmoles of phosphate incorporated was obtained by excising the stained protein band from the gel and counting in scintillation fluid.
(§2) Recombinant protein substrates (0.5 μM final concentration) were incubated with 2mUnits of each CDK5 complex and MgCl2 and [γ-32P] ATP (approx 0.5x10^6 CPM/nmole) for 30 mins. Reactions were terminated by the addition of SDS-PAGE loading buffer and heating to 70 °C. […] Data is representative of at least three different experiments

p25/CDK5 [2] = target: T2, p25/CDK5 (Homo sapiens, UniProt Q00535+Q15078); assay type: biochemical; settings: inhibitor 10 μM, 30 min pre-incubation, GST-tau 0.5 μM, 2 mUnits kinase, Fig. 2b
T2 construct: purchased Millipore UK Ltd, Herts, UK
T2 sequence (Q00535 whole entry): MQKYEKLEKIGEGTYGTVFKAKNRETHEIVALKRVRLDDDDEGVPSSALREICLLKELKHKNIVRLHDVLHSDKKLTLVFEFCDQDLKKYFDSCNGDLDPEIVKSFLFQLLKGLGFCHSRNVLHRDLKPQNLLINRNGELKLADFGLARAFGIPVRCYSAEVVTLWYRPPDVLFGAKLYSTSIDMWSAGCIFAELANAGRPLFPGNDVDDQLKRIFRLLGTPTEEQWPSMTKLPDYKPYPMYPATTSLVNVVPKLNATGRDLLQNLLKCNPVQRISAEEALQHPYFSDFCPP
T2 sequence (Q15078 99-307 partner limits assumed): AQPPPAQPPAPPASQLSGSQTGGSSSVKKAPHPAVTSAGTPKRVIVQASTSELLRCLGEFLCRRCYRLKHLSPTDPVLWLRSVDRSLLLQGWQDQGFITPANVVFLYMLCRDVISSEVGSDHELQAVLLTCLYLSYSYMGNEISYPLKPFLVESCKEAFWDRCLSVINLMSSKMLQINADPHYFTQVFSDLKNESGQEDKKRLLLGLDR
Protocol: as §1, §2

[3] = test system: CDK5 substrate phosphorylation in primary cortical neurons; assay: Immunohistochemistry of CDK5 substrate phosphorylation in paraffin-embedded primary neurons; assay type: cell-based, rat; settings: 10 μM inhibitor, 3 h, formaldehyde fixed, Fig. 3b
Protocol: Sections of formalin-fixed, paraffin embedded tissue were cut at a thickness of 4 μm, collected onto Polysine-coated microscope slides (VWR International) and dried overnight at 37 °C. Sections were dewaxed in Histoclear, rinsed in alcohol and endogenous peroxidase was quenched with 0.5 % hydrogen peroxide (100 volumes) in methanol at room temperature for 35 min. After washing in water, antigen retrieval was performed by boiling sections in 10 mM citrate buffer, pH 6.0 for 15 min in a microwave. After cooling, sections were rinsed in PBS and blocked with 5 % normal serum in PBS containing 5 % (v/v) avidin (Vector Laboratories, Peterborough, UK) for 30 min at room temperature. Sections were washed in PBS and incubated with primary antibody in 5 % normal serum in PBS containing 5 % (v/v) biotin at 4 °C overnight. After washing in PBS, sections were then incubated with biotinylated secondary antibody (1:250) (Vector Laboratories) for 30 min at room temperature, followed by streptavidin complexed with biotinylated peroxidase (Vectastain ABC kit; Vector Laboratories) at room temperature for 30 min. […] Cell nuclei were counterstained with haematoxylin (Sigma), dehydrated through graded alcohols, cleared in HistoClear and mounted in DPX. Images were taken using a Spot Insight QE digital camera or slides were digitally scanned (x40) using an Aperio ScanScope XT.

[4] = test system: CDK5 substrate phosphorylation in primary cortical neurons; assay: Immunofluorescence of CDK5 substrate phosphorylation in primary cortical neurons; assay type: cell-based, rat; settings: 10 μM inhibitor, 3 h, neurons 6 days in vitro, Fig. 3a
Protocol: Embryonic primary cortical neurons were isolated from Sprague–Dawley rats at day 18 gestation. Briefly, following dissection, cortex was digested in 0.25 % trypsin in Hank’s balanced salt solution at 37 °C for 20 min. Cells were manually dissociated by trituration using a fire-polished Pasteur pipette and plated onto 0.01 % poly-l-lysine-coated coverslips at a density of 2–5 × 10^6 cells per 6 cm well, then incubated at 37 °C with 5 % CO2 in Neurobasal medium (Gibco) containing 2 % (vol/vol) B27 serum replacement (Invitrogen), penicillin (Sigma; 100 units/ml), streptomycin (Sigma; 100 μg/ml), and 1 % (vol/vol) L-glutamine (Sigma). HeLa and tumour cell lines were maintained in DMEM supplemented with 4.5 g/L glucose, 10 % (vol/vol) FCS, 1 % (vol/vol) penicillin (100 units/ml)/streptomycin (100 μg/ml) at 37 °C in 5 % CO2. […]
Fig. 3 Imaging of CDK5 substrate phosphorylaiton in primary cells. […] Phosphospecific antibodies were detected by Cy-3 bound 2ry antibodies (red) and nuclei were counter-stained with the DNA-binding dye DAPI (blue). […]

MDA-MB321 = MDA-MB321 breast cancer cell line; cited from earlier work
Description: (§3) Similarly, CDK5 levels decrease in gastric cancer and its nuclear accumulation suppresses gastric tumorigenesis.

MCF-7 = MCF-7 breast cancer cell line; cited from earlier work
Description: as §3

p35/CDK5 [5] = target: T1, p35/CDK5; assay: Phosphorylation kinetics of recombinant protein substrates by p35/Cdk5; assay type: biochemical; settings: initial rate, varying substrate concentrations, Mg[γ-32P]ATP, 10 min, 30 °C, Lineweaver-Burk, ND = not determinable, not phosphorylated to a significant level; for Vmax: at least two experiments in duplicate
Protocol: as §1

p25/CDK5 [6] = target: T2, p25/CDK5; assay: Phosphorylation kinetics of recombinant protein substrates by p25/Cdk5; assay type: biochemical; settings: initial rate, varying substrate concentrations, Mg[γ-32P]ATP, 10 min, 30 °C, Lineweaver-Burk, ND = not determinable, not phosphorylated to a significant level; for Vmax: at least two experiments in duplicate
Protocol: as §1

p25/CDK5 [7] = target: T2, p25/CDK5; assay: Peptide kinase assay with p25/CDK5; assay type: biochemical; settings: 100 μM peptide; for Rate of phosphorylation compared with related peptides, in words: 1.0 versus 1.1 and 1.2, 1.4 versus 1.3; for Phosphorylation of substrate class peptides, in words: 20 min, Fig. 1b
Protocol: (§4) Specific activity (pmol/min) was determined for all protein kinases by incubating known amounts of kinase (0.01-1 μg) with the generic substrate myelin basic protein (MBP, 0.3 mg/ml final) in kinase buffer (25 mM MOPS pH 7.5, 0.05 % (v/v) Brij-35, 0.25 mM EDTA, 5 % (v/v) glycerol) plus 10 mM MgCl2, and 100 μM [γ-32P] ATP (approx 0.5 × 10^6 CPM/nmol) as previously described. Peptide kinase assays were performed with 2mUnits of each kinase as above, except MBP was replaced with the peptide at the concentration given in figure legends. One unit of activity of each protein kinase was calculated as 1 nmole of phosphate transferred/min.
(§5) Fig. 1 In vitro analysis of primary sequence determinants for p35/CDK5 and p25/CDK5. a The contribution of C-terminal Arg/Lys residues to recognition and phosphorylation by each CDK5 complex was assessed by incubating the peptides at the indicated concentrations with 2 m units of each CDK5 complex for 20 mins and measuring phosphate transferred to each peptide. b Each CDK5 complex was incubated for 20 mins with 100 μM of the indicated peptides representing the primary sequence of the 4 classes of CDK5 substrates. The phosphorylated residue is underlined. c To assess the contribution of specific residues ±2 positions from the target residue a further 4 peptides (at 100 μM) were incubated with 2mUnits of each CDK5 complex for 30 mins. The residue changed from the parent sequence (peptide 1.0) is in italics in each case. *indicates p < 0.05 compared to peptide 1.0. d The rate of phosphorylation of the indicated peptides by several members of the CMGC family of kinases was compared by incubating each peptide (at 50 μM) with 2 m units (as determined against the generic substrate MBP) of each kinase for 30 mins and phosphate transfer measured. In all figures the data is presented as the average of at least two different experiments performed in duplicate ± the SEM, and is given as total picomoles transferred during the assay (a) or pmoles transferred/min (b-d)

p35/CDK5 [8] = target: T1, p35/CDK5; assay: Peptide kinase assay with p35/CDK5; assay type: biochemical; settings: 100 μM peptide; for Rate of phosphorylation compared with related peptides, in words: 1.0 versus 1.1 and 1.2, 1.4 versus 1.3; for Phosphorylation of substrate class peptides, in words: 20 min, Fig. 1b
Protocol: as §4, §5

[9] = test system: CMGC protein kinase family; assay: Peptide phosphorylation by several members of the CMGC kinase family (selectivity); assay type: biochemical; settings: 50 μM peptide, 2 mUnits of each kinase, 30 min, Fig. 1d
Protocol: as §4, §5

PICTAIRE = assay: Peptide kinase assay with […]; assay type: biochemical; settings: 50 μM peptide, 2 mUnits kinase, 30 min, Fig. 1d
Protocol: as §4
Fig. 1 In vitro analysis of primary sequence determinants for p35/CDK5 and p25/CDK5. a The contribution of C-terminal Arg/Lys residues to recognition and phosphorylation by each CDK5 complex was assessed by incubating the peptides at the indicated concentrations with 2 m units of each CDK5 complex for 20 mins and measuring phosphate transferred to each peptide. b Each CDK5 complex was incubated for 20 mins with 100 μM of the indicated peptides representing the primary sequence of the 4 classes of CDK5 substrates. The phosphorylated residue is underlined. c To assess the contribution of specific residues ±2 positions from the target residue a further 4 peptides (at 100 μM) were incubated with 2mUnits of each CDK5 complex for 30 mins. […]

T1 sequence (Q00535 whole entry): as the sequence (Q00535 whole entry) above
T1 sequence (Q15078 whole entry partner): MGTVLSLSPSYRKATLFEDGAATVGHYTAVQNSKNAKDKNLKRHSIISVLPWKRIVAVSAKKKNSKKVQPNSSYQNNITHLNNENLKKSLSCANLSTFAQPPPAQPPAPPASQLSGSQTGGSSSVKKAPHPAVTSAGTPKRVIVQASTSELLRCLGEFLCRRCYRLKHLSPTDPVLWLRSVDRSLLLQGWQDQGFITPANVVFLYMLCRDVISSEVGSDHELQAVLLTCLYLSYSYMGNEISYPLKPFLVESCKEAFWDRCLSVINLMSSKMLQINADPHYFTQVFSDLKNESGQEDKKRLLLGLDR

In the case of N.N.O=C([O-])C1(C(=O)[O-])CCC1.[Pt+2] [carboplatin], the “Effect on CDK5 activity” value (CDK5) is given as “induces CDK5 activation”.

For CC(C)[C@H](CO)Nc1nc(Nc2cccc(Cl)c2)c2ncn(C(C)C)c2n1 [purvalanol A], the “Effect of CDK inhibitor on tau phosphorylation in vitro” value (p35/CDK5 [1]) was “completely blocked”, the “Effect of CDK inhibitor on tau phosphorylation in vitro” value (p25/CDK5 [2]) was “completely blocked” and the “Intensity of staining and number of cells stained for phospho-Ser522 of CRMP2 (immunohistochemistry)” value [3] was “reduced”. For the same compound, the “Tau phosphorylation at Ser235 (immunohistochemistry)” value [3] was “not significantly affected”, the “Tau phosphorylation at Thr205 (immunohistochemistry)” value [3] was “not significantly affected” and the “CRMP2 phosphorylation at Ser522 (immunofluorescence)” value [4] was “reduces”. For the same compound, the “CRMP4 phosphorylation at Ser522 (immunofluorescence)” value [4] was “does not alter”.

For CC[C@H](CO)Nc1nc(NCc2ccccc2)c2ncn(C(C)C)c2n1 [roscovitine], the Effect on proliferation (MDA-MB321) is listed as “enhances the proliferation” and the Effect on proliferation (MCF-7) is listed as “enhances the proliferation”.

With “CRMP1: recombinant collapsin response mediator protein 1, proposed CDK5 substrate” the Km (p35/CDK5 [5]) was 1.26 µM, the Vmax (p35/CDK5 [5]) was 0.735 pmol/min and the Km (p25/CDK5 [6]) was 1.46 µM. The Vmax (p25/CDK5 [6]) was 0.191 pmol/min.

“CRMP4: recombinant collapsin response mediator protein 4, proposed CDK5 substrate” gave a Km (p35/CDK5 [5]) of 0.401 µM, a Vmax (p35/CDK5 [5]) of 0.665 pmol/min and a Km (p25/CDK5 [6]) of 0.252 µM. It also gave a Vmax (p25/CDK5 [6]) of 0.155 pmol/min.

With KKASAAKSPPKPRS [peptide 1.4] the “Rate of phosphorylation compared with related peptides, in words” value (p25/CDK5 [7]; 2 mUnits, 30 min, Fig. 1c) was “did not restore phosphorylation” and the “Rate of phosphorylation compared with related peptides, in words” value (p35/CDK5 [8]; 2 mUnits, 30 min, Fig. 1c) was “did not restore phosphorylation”.

With KKASAPKSPARPRS [peptide 1.1] the “Selectivity of peptide substrate among CMGC kinases, in words” value (shortened to “Selectivity”) [9] was “CDK5 is the most effective kinase”.

With KKASAPKSPPKPRS [peptide 1.3] the “Reduction of rate of phosphorylation compared to peptide 1.0 and 1.1” value (p25/CDK5 [7]; 2 mUnits, 30 min, Fig. 1c) was greater than 90%, the “Phosphorylation by PICTAIRE compared with CDK5, in words” value (PICTAIRE) was “to a greater extent than CDK5” and the “Reduction of rate of phosphorylation compared to peptide 1.0 and 1.1” value (p35/CDK5 [8]; 2 mUnits, 30 min, Fig. 1c) was greater than 90%.

In the case of KKASAPKSPRKPRS [peptide 1.0], the “Rate of phosphorylation compared with related peptides, in words” value (p25/CDK5 [7]; 2 mUnits, 30 min, Fig. 1c) is reported as “twice the rate”, the “Phosphorylation of substrate class peptides, in words” value (p25/CDK5 [7]) is reported as “much better substrates” and the “Selectivity” value [9] is reported as “highly selective for CDK5”. For the same compound, the “Phosphorylation by PICTAIRE relative to a matched amount of MBP kinase activity of CDK5” value (PICTAIRE) was less than 80%, the “Rate of phosphorylation compared with related peptides, in words” value (p35/CDK5 [8]; 2 mUnits, 30 min, Fig. 1c) was “twice the rate” and the “Phosphorylation of substrate class peptides, in words” value (p35/CDK5 [8]) was “much better substrates”.

In the case of KKASAPVSPPRDRK [Class 2], the “Phosphorylation of substrate class peptides, in words” value (p25/CDK5 [7]) is reported as “relatively poor substrate” and the “Phosphorylation of substrate class peptides, in words” value (p35/CDK5 [8]) is reported as “relatively poor substrate”.

With KKASAPVSPRKPRS [peptide 1.2] the “Selectivity” value [9] was “CDK5 is the most effective kinase”.

In the case of KKENNVLSPLPSQA [Class 4], the “Phosphorylation of substrate class peptides, in words” value (p25/CDK5 [7]) is reported as “not phosphorylated” and the “Phosphorylation of substrate class peptides, in words” value (p35/CDK5 [8]) is reported as “not phosphorylated”.

With KKPKSRRSPPSIPT [Class 3] the “Phosphorylation of substrate class peptides, in words” value (p25/CDK5 [7]) was “not phosphorylated” and the “Phosphorylation of substrate class peptides, in words” value (p35/CDK5 [8]) was “not phosphorylated”.

From article PMC4640224, “Phosphorylation of a splice variant of collapsin response mediator protein 2 in the nucleus of tumour cells links cyclin dependent kinase-5 to oncogenesis” (BMC Cancer, 2015)
